Assays:
[1] = tested on: H3K27me3 / H3K27ac peaks in CD4+ T cells; assay: ChIP-seq of H3K27me3 and H3K27ac after YM155 treatment; assay type: cell-based, human
Method: (§1) Human peripheral blood mononuclear cells were isolated from venous peripheral blood by density gradient separation on Lymphoprep (Axis-Shield PoC As, Dundee, Scotland). CD4^+ cells were isolated by positive selection (Invitrogen, 11331D), and cultured (1.25×10^6 cells/ml) in wells coated with anti-CD3 antibody (0.5 mg/ml; OKT3, Sigma-Aldrich, Saint Luis, Missouri, USA), in RPMI medium supplemented with 50 μM β-mercaptoethanol (Gibco, Waltham, Massachusetts, USA), Glutamax 2 mM (Gibco), Gentamicin 50 μg/ml (Sanofi-Aventis, Paris, France) and 10% fetal bovine serum (Sigma-Aldrich) at 37°C in a humidified 5% CO2 atmosphere. Cells were treated with survivin inhibitors serpantronium bromide, YM155[22] (YM155, Selleck Chemicals, Houston, TX), as indicated. The cells were stimulated with recombinant IFNg (50 ng/ml; Peprotech, Cranbury, NJ, USA) during the last 2 h and harversted for RNA-seq. Supernatants were used to measure cytokine levels.
For ChIP-seq analysis, CD4^+ cells isolated from 12 women were stimulated with concanavalin A (ConA, 0.625 μg/ml, Sigma-Aldrich), and lipopolysaccharide (LPS) (5 μg/ml, Sigma-Aldrich) for 72 h and pooled in 4 independent samples for DNA purification. After shearing and pre-clearing of chromatin, 1% of the sample was saved as an input. The pre-cleared chromatin was incubated with 2 μg anti-Survivin (10811, Santa Cruz Biotechnology). For ChIPseq targeting histone modifications CD4^+ cells from 3 healthy women were stimulated with concanavalin A and LPS and treated with sepantronium bromide, YM155, 0 or 10 ng/ml, for 24 h. The chromatin was pre-cleared on the beads coated with Sepharose A and incubated with anti-H3K27ac (C15410196, Diagenode), or anti-H3K27me3 (C15410195, Diagenode). The cells were cross-linked and lysed with the EpiTect ChIP OneDay kit (Qiagen), as recommended by the manufacturer. After sonication to shear the chromatin, cellular debris was removed by pelleting. After pre-clearing, 1% of the sample was saved as an input fraction and used as background for nonspecific chromatin binding. Pre-cleared chromatin was incubated with 2 μg of anti-survivin (10811, Santa Cruz Biotechnology, Santa Cruz, CA, USA). The immune complexes were washed, the cross-links were reversed, and the DNA was purified with the EpiTect ChIP OneDay kit (Qiagen) as recommended by the manufacturer. The quality of purified DNA was assessed with TapeStation (Agilent, Santa Clara, CA, USA). DNA libraries were prepared with ThruPLEX (Rubicon) and sequenced with a Hiseq2000 sequencing system (Illumina) according to the manufacturer’s protocols. Bcl-files were converted and demultiplexed to fastq with bcl2fastq (Illumina).
The fastq sequencing files were mapped to the human reference genome (hg38) using the STAR aligner[58] with default parameters apart from setting the alignIntronMax flag to 1 for end-to-end mapping. Quality control of the sequenced material was performed by FastQC tool using MultiQC v.0.9dev0 (Babraham Institute, Cambridge, U.K.). Peak calling was performed using the default parameters. Peaks were identified for enrichment of the immunoprecipitation fraction against input (adjusted p < 10^−5) and annotated by HOMER software[59] in standard mode to closest transcription start site (TSS). Peaks with overlapping localization by at least 1 nucleotide in several samples were merged and further on referred to as one peak. […]

[2] = tested on: gene expression in CD4+ cells; assay: RNA-seq after YM155 treatment; assay type: cell-based, human
Method: as §1
RNA from the CD4^+ cell cultures was prepared using the Norgen Total micro mRNA kit (Norgen, Ontario, Canada). Quality control was done by Bioanalyzer RNA6000 Pico on Agilent2100 (Agilent, Santa Clara, CA, USA). Deep sequencing was done by RNAseq (Hiseq2000, Illumina) at the Science for Life Laboratory, Huddinge, Sweden. Raw sequence data were obtained in Bcl-files and converted into fastq text format using the bcl2fastq program from Illumina.
Mapping of transcripts was done using Genome UCSC annotation set for hg38 human genome assembly. Analysis was performed using the core Bioconductor packages in R-studio v.3.6.3. Differentially expressed genes in CD4^+ cells treated with YM155 were identified using DESeq2 (v.1.26.0) with Benjamini-Hochberg adjustment for multiple testing.
Supplementary file mmc2.xlsx: Table S1. Differentially expressed protein coding genes connected to the changeable H3K27me3 peaks in CD4^+ T cells, related to Figure 1 CD4^+ T cells (n=4) were cultured with survivin inhibitor YM155 (0 and 10 ng/ml). Expression was analyzed by RNA-seq and compared by paired DESeq2 test.

[3] = tested on: survivin transcription; set-up: method as in PMID 17804712; details: cited from earlier work
[4] = tested on: XIAP, cIAP2, Bcl-XL, Bcl-2, Bad, p53, cIAP1, STAT3; set-up: method as in 2 sources, ref 22 = [22]; PMID 17804712; doi:10.1158/0008-5472.CAN-07-1343; 22 Nakahara T. Kita A. Yamanaka K. Mori M. Amino N. Takeuchi M. Tominaga F. Hatakeyama S. Kinoyama I. Matsuhisa A. YM155, a novel small-molecule survivin suppressant, induces regression of established ||| ref 23 = [23]; PMID 18927289; doi:10.1158/1078-0432.CCR-08-0468; 23 Iwasa T. Okamoto I. Suzuki M. Nakahara T. Yamanaka K. Hatashita E. Yamada Y. Fukuoka M. Ono K. Nakagawa K. Radiosensitizing effect of YM155, a novel small-molecule survivin suppressant, in non-smal; details: cited from earlier work

SMILES: COCCn1c2c([n+](Cc3cnccn3)c1C)C(=O)c1ccccc1C2=O [YM155, sepantronium bromide]
- H3K27 acetylation after survivin inhibition (in words) ([1]; CD4+ T cells, YM155 10 ng/ml, 24 h): virtually unaffected
- proportion of H3K27me3 peaks with increased H3K27me3 deposition ([1]; CD4+ T cells, YM155 10 ng/ml, 24 h, ConA/LPS stimulated): 85%
- increase in tag counts, middle H3K27me3 peak (first) ([1]; HOX-B cluster, chromosome 17): 51%
- increase in tag counts, middle H3K27me3 peak (second) ([1]; HOX-B cluster, chromosome 17): 69%
- number of H3K27me3 peaks that increased the count by 30% ([1]; YM155-treated CD4+ cell cultures): 7413
- caudal HOX-B gene expression (in words) ([2]; HOX-B8, -B9, and -B13, YM155, CD4+ cells): a change of the HOX-B genes, which was clearly seen in the caudal HOX-B8, -B9, and -B13 genes
- number of genes downregulated (of 157) ([2]; genes connected to changed H3K27me3 peaks, YM155-treated CD4+ cells): 100
- number of protein-coding genes with significantly changed mRNA levels ([2]; genes connected to regulatory elements at changed H3K27me3 peaks, nominal p < 0.01, YM155-treated CD4+ cells): 157
- effect on survivin transcription (in words) [3]: specifically inhibits survivin transcription
- effect on expression of XIAP, cIAP2, Bcl-XL, Bcl-2, Bad (in words) [4]: does not change the expression
- effect on expression of p53, cIAP1, STAT3 (in words) [4]: does not change the expression

Reference: publication PMC10391610, “Survivin prevents the polycomb repressor complex 2 from methylating histone 3 lysine 27” (iScience, 2023)
